Legend:
Format in all cases: in vivo
[1] = tested on: AMARE: Amaranthus retroflexus; assay: Pre-emergence herbicide efficacy at 80 g/ha, AMARE; conditions: scored visually after about 3 weeks
Outline: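 Pre-emergence soil-surface spray, WP/EC formulation, 0.5% additive, 600 l/ha water volume. Greenhouse, ~3 weeks. Visual % activity vs untreated (100% = dead plants).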

[2] = tested on: DIGSA: Digitaria sanguinalis; assay: Pre-emergence herbicide efficacy at 80 g/ha, DIGSA; conditions: scored visually after about 3 weeks
Description: (§1) Seeds of monocotyledonous and dicotyledonous weed plants and crop plants were placed in plastic or organic planting pots and covered with soil. The compounds of the invention, formulated in the form of wettable powders (WP) or as emulsion concentrates (EC), were then applied to the surface of the covering soil as aqueous suspension or emulsion with addition of 0.5% additive at a water application rate equivalent to 600 l/ha. After the treatment, the pots were placed in a greenhouse and kept under good growth conditions for the test plants. After about 3 weeks, the efficacy of the preparations was scored visually in comparison with untreated controls as percentages. For example, 100% activity=the plants have died, 0% activity=like control plants. Tables D1 to D12 below show the effects of selected compounds of the general formula (I) according to Table 1 on various harmful plants and an application rate corresponding to 80 g/ha, which were obtained by the experimental procedure mentioned above.

[3] = tested on: POLCO; assay: Pre-emergence herbicide efficacy at 80 g/ha, POLCO; conditions: Polygonum convolvulus, scored visually after about 3 weeks
Description: as §1

[4] = tested on: SETVI: Setaria viridis; assay: Pre-emergence herbicide efficacy at 80 g/ha, SETVI; conditions: scored visually after about 3 weeks
Description: as §1

[5] = tested on: AMARE: Amaranthus retroflexus; assay: Post-emergence herbicidal efficacy at 80 g/ha, AMARE; conditions: visual rating about 3 weeks after treatment vs untreated controls
Outline: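 Post-emergence spray, one-leaf stage (2–3 wk after sowing), sandy loam, greenhouse; WP/EC in water + 0.5% additive, 600 l/ha. Visual % activity vs untreated controls at ~3 wk; 100% = plants dead, 0% = like control.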

[6] = tested on: VERPE: Veronica persica; assay: Pre-emergence herbicide efficacy at 80 g/ha, VERPE; conditions: scored visually after about 3 weeks
Description: as §1

[7] = tested on: ABUTH: Abutilon theophrasti; assay: Post-emergence herbicidal efficacy at 1280 g/ha, ABUTH; conditions: rated visually after about 3 weeks vs untreated controls, 100% = plants have died, 0% = like control plants
Outline: (§2)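 Visual damage rating was made roughly 3 weeks after treatment, relative to untreated plants, on a scale where 0% means no effect and 100% means plants died. Foliar application was at the one-leaf stage as an aqueous WP/EC spray with 0.5% additive at 600 L/ha water, on greenhouse-grown pot plants.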

[8] = tested on: ALOMY: Alopecurus myosuroides; assay: Post-emergence herbicidal efficacy at 1280 g/ha, ALOMY; conditions: rated visually after about 3 weeks vs untreated controls, 100% = plants have died, 0% = like control plants
Procedure: (§3) Seeds of mono- and dicotyledonous weed plants were placed in plastic pots in sandy loam soil (doubly sown with in each case one species of mono- or dicotyledonous weed plants per pot), covered with soil and cultivated in a greenhouse under controlled growth conditions. 2 to 3 weeks after sowing, the test plants were treated at the one-leaf stage. The compounds of the invention, formulated in the form of wettable powders (WP) or as emulsion concentrates (EC), were applied to the green parts of the plants as aqueous suspension or emulsion with addition of 0.5% additive at a water application rate equivalent to 600 litres per hectare. After the test plants had been kept in the greenhouse under optimum growth conditions for about 3 weeks, the activity of the preparations was rated visually in comparison to untreated controls. For example, 100% activity=the plants have died, 0% activity=like control plants. Tables A1 to A12 below show the effects of selected compounds of the general formula (I) according to Table 1 on various harmful plants and at an application rate corresponding to 1280 g/ha, which were obtained by the trial procedure specified above.

[9] = tested on: AMARE: Amaranthus retroflexus; assay: Post-emergence herbicidal efficacy at 1280 g/ha, AMARE; conditions: rated visually after about 3 weeks vs untreated controls, 100% = plants have died, 0% = like control plants
Outline: as §2

[10] = tested on: ECHCG: Echinochloa crus-galli; assay: Post-emergence herbicidal efficacy at 1280 g/ha, ECHCG; conditions: rated visually after about 3 weeks vs untreated controls, 100% = plants have died, 0% = like control plants
Outline: as §2

[11] = tested on: KCHSC: Kochia scoparia; assay: Post-emergence herbicidal efficacy at 1280 g/ha, KCHSC; conditions: visual rating about 3 weeks after treatment vs untreated controls
Outline: as §2

[12] = tested on: POAAN: Poa annua; assay: Post-emergence herbicidal efficacy at 1280 g/ha, POAAN; conditions: visual rating about 3 weeks after treatment vs untreated controls
Outline: as §2

[13] = tested on: SETVI: Setaria viridis; assay: Post-emergence herbicidal efficacy at 1280 g/ha, SETVI; conditions: visual rating about 3 weeks after treatment vs untreated controls
Outline: as §2

[14] = tested on: STEME: Stellaria media; assay: Post-emergence herbicidal efficacy at 1280 g/ha, STEME; conditions: visual rating about 3 weeks after treatment vs untreated controls
Outline: as §2

[15] = tested on: VERPE: Veronica persica; assay: Post-emergence herbicidal efficacy at 1280 g/ha, VERPE; conditions: visual rating about 3 weeks after treatment vs untreated controls
Outline: as §2

[16] = tested on: ABUTH: Abutilon theophrasti; assay: Pre-emergence herbicide efficacy at 1280 g/ha, ABUTH; conditions: visual scoring after about 3 weeks vs untreated controls
Outline: (§4)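 Visual scoring after about 3 weeks in the greenhouse, as percent activity relative to untreated pots, where 0% matches controls and 100% means dead plants. Treatment was pre-emergence: WP or EC formulations sprayed onto soil covering the sown seeds, 600 L/ha water plus 0.5% additive.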

[17] = tested on: AMARE: Amaranthus retroflexus; assay: Pre-emergence herbicide efficacy at 1280 g/ha, AMARE; conditions: visual scoring after about 3 weeks vs untreated controls
Outline: as §4

[18] = tested on: POAAN: Poa annua; assay: Pre-emergence herbicide efficacy at 1280 g/ha, POAAN; conditions: visual scoring after about 3 weeks vs untreated controls
Outline: as §4

[19] = tested on: SETVI: Setaria viridis; assay: Pre-emergence herbicide efficacy at 1280 g/ha, SETVI; conditions: visual scoring vs untreated controls
Outline: as §4

[20] = tested on: VERPE: Veronica persica; assay: Pre-emergence herbicide efficacy at 1280 g/ha, VERPE; conditions: visual scoring vs untreated controls
Outline: as §4

[21] = tested on: ABUTH: Abutilon theophrasti; assay: Pre-emergence herbicide efficacy at 80 g/ha, ABUTH; conditions: scored visually after about 3 weeks
Description: as §1

[22] = tested on: LOLRI: Lolium rigidum; assay: Post-emergence herbicidal efficacy at 1280 g/ha, LOLRI; conditions: visual rating about 3 weeks after treatment vs untreated controls
Procedure: as §3

[23] = tested on: STEME: Stellaria media; assay: Pre-emergence herbicide efficacy at 1280 g/ha, STEME; conditions: visual scoring vs untreated controls
Outline: as §4

[24] = tested on: MATIN: Matricaria inodora; assay: Pre-emergence herbicide efficacy at 80 g/ha, MATIN; conditions: scored visually after about 3 weeks
Description: as §1

[25] = tested on: DIGSA: Digitaria sanguinalis; assay: Post-emergence herbicidal efficacy at 1280 g/ha, DIGSA; conditions: rated visually after about 3 weeks vs untreated controls, 100% = plants have died, 0% = like control plants
Outline: as §2

[26] = tested on: DIGSA: Digitaria sanguinalis; assay: Pre-emergence herbicide efficacy at 1280 g/ha, DIGSA; conditions: visual scoring after about 3 weeks vs untreated controls
Outline: as §4

[27] = tested on: ECHCG: Echinochloa crus-galli; assay: Pre-emergence herbicide efficacy at 1280 g/ha, ECHCG; conditions: visual scoring after about 3 weeks vs untreated controls
Outline: as §4

[28] = tested on: KCHSC: Kochia scoparia; assay: Pre-emergence herbicide efficacy at 1280 g/ha, KCHSC; conditions: visual scoring after about 3 weeks vs untreated controls
Outline: as §4

[29] = tested on: MATIN: Matricaria inodora; assay: Pre-emergence herbicide efficacy at 1280 g/ha, MATIN; conditions: visual scoring after about 3 weeks vs untreated controls
Outline: as §4

[30] = tested on: VERPE: Veronica persica; assay: Post-emergence herbicidal efficacy at 80 g/ha, VERPE; conditions: visual rating about 3 weeks after treatment vs untreated controls
Procedure: (§5) Seeds of monocotyledonous and dicotyledonous weeds and crop plants were placed in sandy loam in plastic or organic planting pots, covered with soil and cultivated in a greenhouse under controlled growth conditions. 2 to 3 weeks after sowing, the test plants were treated at the one-leaf stage. The compounds of the invention, formulated in the form of wettable powders (WP) or as emulsion concentrates (EC), were then sprayed onto the green parts of the plants as aqueous suspension or emulsion with addition of 0.5% additive at a water application rate of 600 l/ha (converted). After the test plants had been kept in the greenhouse under optimum growth conditions for about 3 weeks, the activity of the preparations was rated visually in comparison to untreated controls. For example, 100% activity=the plants have died, 0% activity=like control plants. Tables B1 to B10 below show the effects of selected compounds of the general formula (I) according to Table 1 on various harmful plants and an application rate corresponding to 80 g/ha, which were obtained by the experimental procedure mentioned above.

[31] = tested on: VIOTR: Viola tricolor; assay: Post-emergence herbicidal efficacy at 80 g/ha, VIOTR; conditions: visual rating about 3 weeks after treatment vs untreated controls
Procedure: as §5

| SMILES | Pre-emergence efficacy against AMARE in % [1] [%] | Pre-emergence efficacy against DIGSA in % [2] [%] | Pre-emergence efficacy against POLCO in % [3] [%] | Pre-emergence efficacy against SETVI in % [4] [%] | Post-emergence efficacy against AMARE [5] [%] | Post-emergence efficacy at 1280 g/ha against ABUTH in % [7] [%] | Post-emergence efficacy at 1280 g/ha against AMARE in % [9] [%] | Post-emergence efficacy against KCHSC [11] [%] | Post-emergence efficacy against POAAN [12] [%] | Post-emergence efficacy against STEME [14] [%] | Post-emergence efficacy against VERPE [15] [%] | Pre-emergence efficacy against ABUTH [16] [%] | Pre-emergence efficacy against AMARE [17] [%] | Pre-emergence efficacy against POAAN [18] [%] | Pre-emergence efficacy against ABUTH in % [21] [%] | further results |
| --- | --- | --- | --- | --- | --- | --- | --- | --- | --- | --- | --- | --- | --- | --- | --- | --- |
| Cc1cccc(Cc2ncc(Cl)cn2)c1Oc1ncc(Cl)cn1 [Example 1-166] | 95 | 100 | 90 | 80 |  |  |  |  |  |  |  |  |  |  |  |  |
| Fc1ccc(Cc2c(F)cccc2Oc2ncc(Cl)cn2)nc1 [Example 1-194] | 100 | 90 | 90 | 100 | 98 |  |  |  |  |  |  |  |  |  |  | Pre-emergence efficacy against VERPE in % [6]: 90% |
| Fc1cc(Cl)cnc1Cc1ccccc1-n1cc(C(F)(F)F)cn1 [Example 1-130] |  |  |  |  |  | 100 | 100 | 100 | 100 | 100 | 100 | 100 | 100 | 90 |  | Post-emergence efficacy at 1280 g/ha against ALOMY in % [8]: 90%; Post-emergence efficacy at 1280 g/ha against ECHCG in % [10]: 90%; Post-emergence efficacy against SETVI [13]: 90%; Pre-emergence efficacy against SETVI in % [19]: 90%; Pre-emergence efficacy against VERPE in % [20]: 90% |
| Fc1cnc(Oc2c(F)cccc2Cc2ncc(Cl)cn2)nc1 [Example 1-152] | 100 | 90 | 90 | 80 | 90 |  |  |  |  |  |  |  |  |  | 80 |  |
| Fc1cc(Cl)cnc1Cc1ccccc1SCCC(F)(F)F [Example 1-110] |  |  |  |  |  | 90 | 100 | 90 | 100 | 100 | 100 | 90 | 100 | 90 |  | Post-emergence efficacy against LOLRI [22]: 90%; Pre-emergence efficacy against STEME in % [23]: 100% |
| Fc1cnc(Cc2cccc(Cl)c2Oc2ncc(F)cn2)nc1 [Example 1-156] | 100 | 90 | 80 |  | 80 |  |  |  |  |  |  |  |  |  | 90 | Pre-emergence efficacy against MATIN in % [24]: 80% |
| Fc1ccc(Oc2c(F)cccc2Cc2ncc(Cl)cn2)cc1 [Example 1-35, 5-Chloro-2-[3-fluoro-2-(4-fluorophenoxy)benzyl]pyrimidine] |  |  |  |  |  | 100 | 100 | 100 | 90 | 100 | 100 | 90 | 100 | 90 |  | Post-emergence efficacy at 1280 g/ha against ALOMY in % [8]: 90%; Post-emergence efficacy at 1280 g/ha against DIGSA in % [25]: 90%; Post-emergence efficacy at 1280 g/ha against ECHCG in % [10]: 100%; Post-emergence efficacy against LOLRI [22]: 90%; Post-emergence efficacy against SETVI [13]: 90%; Pre-emergence efficacy against DIGSA [26]: 90%; Pre-emergence efficacy against ECHCG [27]: 90%; Pre-emergence efficacy against KCHSC [28]: 100%; Pre-emergence efficacy against MATIN [29]: 90%; Pre-emergence efficacy against SETVI in % [19]: 90%; Pre-emergence efficacy against STEME in % [23]: 100%; Pre-emergence efficacy against VERPE in % [20]: 100% |
| Fc1ccc(Oc2ccccc2Cc2ncc(F)cn2)cc1 [Example 1-67] | 90 |  |  |  | 100 |  |  |  |  |  |  |  |  |  | 100 | Post-emergence efficacy against VERPE [30]: 80%; Post-emergence efficacy against VIOTR [31]: 100% |
